We go through 17 compounds from patent US20180244611A1, “Modulators of the Cystic Fibrosis Transmembrane Conductance Regulator Protein and Methods of Use” (AbbVie S.à.r.l., priority 2017, published 2018).

The structures appear in SMILES notation.

Assay [1] addresses T1, F508delCFTR (Homo sapiens, UniProt P13569, DEL508-508).
T1 construct: expressed in transfected cells; host or cells: CFBE41o- human lung-derived epithelial cells (CFBE41o-F508delCFTR-HRP), doxycycline-inducible
Briefly: Cell Surface Expression-Horse Radish Peroxidase (CSE-HRP) assay, test compound without co-corrector.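 For Emax: percent of on-plate 2 µM positive control corrector response over DMSO.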 As to conditions: for Emax: maximum at any tested concentration, normalized to positive control, without co-corrector; for EC50: test compound without co-corrector. The assay is classed as cell-based. How it is done:
(§1) Cell Surface Expression-Horse Radish Peroxidase (CSE-HRP) Assay
(§2) A cellular assay for measuring the F508delCFTR cell surface expression after correction with test compounds either without or with a co-corrector (2 μM of 3-[(2R,4R)-4-({[1-(2,2-difluoro-1,3-benzodioxol-5-yl)cyclopropyl]carbonyl}amino)-7-methoxy-3,4-dihydro-2H-chromen-2-yl]benzoic acid), was developed in human lung derived epithelial cell line (CFBE41o-) (Veit G et al, (2012) Mol Biol Cell. 23(21): 4188-4202). The development was achieved by expressing the F508delCFTR mutation along with a horseradish peroxidase (HRP) in the fourth exofacial loop, and then measuring the HRP activity using luminescence readout from these cells, CFBE41o-F508delCFTR-HRP, that were incubated overnight with the test corrector compounds, either without or with the co-corrector. For this primary assay, the CFBE41o-F508delCFTR-HRP cells were plated in 384-well plates (Greiner Bio-one; Cat 781080) at 4,000 cells/well along with 0.5 μg/mL doxycycline to induce the F508delCFTR-HRP expression and further incubated at 37° C., 5% CO2 for 72 hours. The test compounds were then added either without or with a co-corrector at the required concentrations and further incubated for 18-24 hours at 33° C. The highest concentration tested was 20 μM with an 8-point concentration response curve using a 3-fold dilution in both the test compound without or with the co-corrector. Three replicate plates were run to determine one EC50. All plates contained negative controls (dimethyl sulfoxide, DMSO) and positive control (2 μM of 3-[(2R,4R)-4-({[1-(2,2-difluoro-1,3-benzodioxol-5-yl)cyclopropyl]carbonyl}amino)-7-methoxy-3,4-dihydro-2H-chromen-2-yl]benzoic acid) as well as on-plate concentration response of the positive control. Post incubation, the plates were washed 5× times with Dulbecco's phosphate buffered saline (DPBS), followed by the addition of the HRP substrate, luminol (50 μL), and measuring the HRP activity using luminescence readout on EnVision® Multilabel Plate Reader (Perkin Elmer; product number 2104-0010). The raw counts from the experiment were analyzed using Accelrys® Assay Explorer v3.3.
(§3) Z′ greater than 0.5 was used as passing quality control criteria for the plates.
(§4) 1−[3*SDPositive Control+3*SDNegative Control/Absolute (MeanPositive Control−MeanNegative Control)]
(§5) wherein “SD” is standard deviation.
(§6) The % activity measured at each of the 8 test concentrations of the test compound added either without or with a co-corrector (2 μM of 3-[(2R,4R)-4-({[1-(2,2-difluoro-1,3-benzodioxol-5-yl)cyclopropyl]carbonyl}amino)-7-methoxy-3,4-dihydro-2H-chromen-2-yl]benzoic acid) was normalized to the on-plate positive control using the following formulae:
% activity (Test compound without co-corrector)=[(test compound without co-corrector response−DMSO response)/(positive control response−DMSO response)]*100%
(§7) The maximum % activity achieved for the test compound either without or with a co-corrector at any tested concentration is presented in Table 1 along with the respective EC50's calculated using the following general sigmoidal curve with variable Hill slope equation (described as Model 42 in the Accelrys® Assay Explorer v3.3 software):
(§8) General sigmoidal curve with concentration, response, top, bottom, EC50 and Hill slope. This model describes a sigmoidal curve with an adjustable baseline, a. The equation can be used to fit curves where response is either increasing or decreasing with respect to the independent variable, “x”.
“x” is a concentration of drug under test. “y” is the response. “a” is the maximum response, and “d” is the minimum response “c” is the inflection point (EC50) for the curve. That is, “y” is halfway between the lower and upper asymptotes when x=c. “b” is the slope-factor or Hill coefficient. The sign of b is positive when the response increases with increasing dose and is negative when the response decreases with increasing dose (inhibition). The data is presented with the qualifiers shown below: […]

In assay [2] the target is T1, F508delCFTR. In words: Cell Surface Expression-Horse Radish Peroxidase (CSE-HRP) assay, test compound with co-corrector.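 For Maximum % activity (with co-corrector): percent of 2 µM positive control corrector over DMSO; co-corrector is that same compound.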 The assay is classed as cell-based. The settings on record: with 2 μM co-corrector; for Maximum % activity (with co-corrector): maximum at any tested concentration, normalized to positive control. How it is done:
as §1, §2, §3, §4, §5, §6
activity (Test compound with co-corrector)=[(test compound with co-corrector response−DMSO response)/(positive control response−DMSO response)]*100
as §7, §8
“x” is a concentration of drug under test. “y” is the response. “a” is the maximum response, and “d” is the minimum response “c” is the inflection point (EC50) for the curve. That is, “y” is halfway between the lower and upper asymptotes when x=c. “b” is the slope-factor or Hill coefficient. The sign of b is positive when the response increases with increasing dose and is negative when the response decreases with increasing dose (inhibition).

T1 sequence (P13569 with tags, fused parts or gaps DEL508-508): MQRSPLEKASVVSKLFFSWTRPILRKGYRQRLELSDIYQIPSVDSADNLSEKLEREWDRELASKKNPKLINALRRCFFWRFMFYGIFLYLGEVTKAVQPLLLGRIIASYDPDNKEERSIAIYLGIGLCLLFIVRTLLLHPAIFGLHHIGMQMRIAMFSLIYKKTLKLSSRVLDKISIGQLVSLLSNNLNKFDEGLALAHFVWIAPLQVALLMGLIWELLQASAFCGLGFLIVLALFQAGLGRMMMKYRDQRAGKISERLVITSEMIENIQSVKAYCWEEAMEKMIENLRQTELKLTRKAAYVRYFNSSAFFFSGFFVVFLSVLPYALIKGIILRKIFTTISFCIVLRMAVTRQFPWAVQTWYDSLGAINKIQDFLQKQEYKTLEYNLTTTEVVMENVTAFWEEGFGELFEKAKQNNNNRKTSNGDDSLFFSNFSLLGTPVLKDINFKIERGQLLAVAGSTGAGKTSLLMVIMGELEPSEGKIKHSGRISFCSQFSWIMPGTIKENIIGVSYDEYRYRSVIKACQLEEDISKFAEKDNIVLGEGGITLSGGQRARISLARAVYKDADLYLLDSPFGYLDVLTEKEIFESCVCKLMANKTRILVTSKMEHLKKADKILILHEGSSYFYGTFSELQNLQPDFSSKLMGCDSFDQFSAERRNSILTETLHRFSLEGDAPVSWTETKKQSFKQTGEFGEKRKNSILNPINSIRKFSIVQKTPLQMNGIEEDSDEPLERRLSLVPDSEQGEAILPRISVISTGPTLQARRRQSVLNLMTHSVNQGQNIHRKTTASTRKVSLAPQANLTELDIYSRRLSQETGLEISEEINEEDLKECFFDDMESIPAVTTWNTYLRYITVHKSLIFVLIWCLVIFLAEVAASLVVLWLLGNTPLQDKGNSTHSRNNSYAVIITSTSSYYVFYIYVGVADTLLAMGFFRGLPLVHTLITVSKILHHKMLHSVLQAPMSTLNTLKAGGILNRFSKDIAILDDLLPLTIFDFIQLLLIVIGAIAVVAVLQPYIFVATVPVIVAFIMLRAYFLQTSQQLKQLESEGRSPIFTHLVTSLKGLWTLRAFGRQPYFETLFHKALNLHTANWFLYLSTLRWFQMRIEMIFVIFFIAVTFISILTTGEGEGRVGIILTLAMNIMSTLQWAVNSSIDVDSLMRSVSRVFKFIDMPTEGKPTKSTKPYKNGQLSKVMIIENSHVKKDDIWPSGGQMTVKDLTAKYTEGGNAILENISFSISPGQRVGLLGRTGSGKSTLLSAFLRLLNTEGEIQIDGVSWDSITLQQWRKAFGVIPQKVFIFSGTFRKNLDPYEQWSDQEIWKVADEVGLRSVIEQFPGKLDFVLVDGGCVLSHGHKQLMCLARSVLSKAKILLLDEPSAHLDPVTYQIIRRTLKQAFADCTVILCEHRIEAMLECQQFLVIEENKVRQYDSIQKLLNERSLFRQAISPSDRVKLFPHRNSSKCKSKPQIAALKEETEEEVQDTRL

As a reminder, the Emax is the size of the effect at its maximum, as opposed to the concentration needed. What is called EC50 is the midpoint of the concentration-response curve. As for `COc1cccc2c1CC[C@@]2(C)C(=O)NS(=O)(=O)c1cccc2ccccc12` [Example I-6, (1R)-4-methoxy-1-methyl-N-(naphthalene-1-sulfonyl)-2,3-dihydro-1H-indene-1-carboxamide], in assay [1], the Emax was at least 150% and the EC50 lay in the range of 3 to 10 µM. In assay [2], the “Maximum % activity (with co-corrector)” value is given as “+++ (≥350)” and the EC50 lay in the range of 3 to 10 µM.
In assay [1], `CCC1(C(=O)NS(=O)(=O)c2cccc3ccccc23)CCc2c(Cl)cccc21` (centres unmarked) [Example I-7, 4-chloro-1-ethyl-N-(naphthalene-1-sulfonyl)-2,3-dihydro-1H-indene-1-carboxamide] gave an Emax of at least 150% and a 50% effective concentration (EC50) below 3 µM. Moreover, in assay [2], the “Maximum % activity (with co-corrector)” value is given as “+++ (≥350)” and the EC50 is below 3 µM.
In assay [1], `O=C(NS(=O)(=O)c1cccc2ccccc12)C1CCc2c(Cl)cccc21` (centres unmarked) [Example I-8, 4-chloro-N-(naphthalene-1-sulfonyl)-2,3-dihydro-1H-indene-1-carboxamide] gave an Emax of at least 150% and an EC50 of 3 to 10 µM. Moreover, in assay [2], the “Maximum % activity (with co-corrector)” value is recorded as “+++ (≥350)” and the EC50 is 3 to 10 µM.
In assay [1], `COc1cccc2c1CCCC2(Cc1ccccc1)C(=O)NS(=O)(=O)c1cccc2ccccc12` (centres unmarked) [Example I-9, 1-benzyl-5-methoxy-N-(naphthalene-1-sulfonyl)-1,2,3,4-tetrahydronaphthalene-1-carboxamide] returned a maximal response (Emax) of at least 150% and an EC50 below 3 µM. Besides, in assay [2], the “Maximum % activity (with co-corrector)” value was “+++ (≥350)” and the EC50 is below 3 µM.
In assay [1], `CCC1(C(=O)NS(=O)(=O)c2cccc3ccccc23)CCCc2c(OC)cccc21` (centres unmarked) [Example I-10, 1-ethyl-5-methoxy-N-(naphthalene-1-sulfonyl)-1,2,3,4-tetrahydronaphthalene-1-carboxamide] came in with a maximal effect (Emax) of at least 150% and an EC50 of 3 to 10 µM. Besides, in assay [2], the “Maximum % activity (with co-corrector)” value is “+++ (≥350)” and the EC50 is below 3 µM.
For `O=C(NS(=O)(=O)c1cccc2ccccc12)[C@@H]1CCCc2cccc(Cl)c21` [Example I-11, (1R)-8-chloro-N-(naphthalene-1-sulfonyl)-1,2,3,4-tetrahydronaphthalene-1-carboxamide] the same measures were at least 150%, below 3 µM, “+++ (≥350)” and below 3 µM.
The corresponding values for `O=C(NS(=O)(=O)c1cccc2ccccc12)[C@H]1CCCc2cccc(Cl)c21` [Example I-12, (1S)-8-chloro-N-(naphthalene-1-sulfonyl)-1,2,3,4-tetrahydronaphthalene-1-carboxamide] are at least 150%, 3 to 10 µM, “+++ (≥350)” and below 3 µM.
In assay [1], `CCC1(C(=O)NS(=O)(=O)c2cccc3c2OC(F)(F)O3)CCc2c(Cl)cccc21` (centres unmarked) [Example I-13, 4-chloro-N-(2,2-difluoro-2H-1,3-benzodioxole-4-sulfonyl)-1-ethyl-2,3-dihydro-1H-indene-1-carboxamide] came in with an Emax below 50% and an EC50 of at least 10 µM. In assay [2], the “Maximum % activity (with co-corrector)” value was “++ (≥150 and <350)”; the EC50 was below 3 µM.
In assay [1], `CC1(C(=O)NS(=O)(=O)c2cccc3ccccc23)CCc2cccc(Cl)c21` (centres unmarked) [Example I-14, 7-chloro-1-methyl-N-(naphthalene-1-sulfonyl)-2,3-dihydro-1H-indene-1-carboxamide] had an Emax of at least 150% and an EC50 below 3 µM. Moreover, in assay [2], the “Maximum % activity (with co-corrector)” value is on record as “+++ (≥350)” and the EC50 was below 3 µM.
In the case of `COc1ccc(Br)c2c1CCCC2C(=O)NS(=O)(=O)c1cccc2ccccc12` (centres unmarked) [Example I-15, 8-bromo-5-methoxy-N-(naphthalene-1-sulfonyl)-1,2,3,4-tetrahydronaphthalene-1-carboxamide], in assay [1], the Emax is at least 150% and the EC50 is below 3 µM. For the same compound, in assay [2], the “Maximum % activity (with co-corrector)” value was “+++ (≥350)” and the EC50 is below 3 µM.
In assay [1], `O=C(NS(=O)(=O)c1cccc2ccccc12)C1(CCN2CCC(F)(F)C2)CCc2c(Cl)cccc21` (centres unmarked) [Example I-16, 4-chloro-1-[2-(3,3-difluoropyrrolidin-1-yl)ethyl]-N-(naphthalene-1-sulfonyl)-2,3-dihydro-1H-indene-1-carboxamide] yielded an Emax of 50 to 150% and an EC50 below 3 µM. Moreover, in assay [2], the “Maximum % activity (with co-corrector)” value was “+++ (≥350)” and the EC50 is below 3 µM.
Consider `CC[C@]1(C(=O)NS(=O)(=O)c2cccc3ccccc23)CCc2c(Cl)cccc21` [Example I-17, (1S)-4-chloro-1-ethyl-N-(naphthalene-1-sulfonyl)-2,3-dihydro-1H-indene-1-carboxamide], for which, in assay [1], the Emax is 50 to 150% and the EC50 is below 3 µM. Also, in assay [2], the “Maximum % activity (with co-corrector)” value is “+++ (≥350)” and the EC50 is below 3 µM.
For the compound `CC[C@@]1(C(=O)NS(=O)(=O)c2cccc3ccccc23)CCc2c(Cl)cccc21` [Example I-18, (1R)-4-chloro-1-ethyl-N-(naphthalene-1-sulfonyl)-2,3-dihydro-1H-indene-1-carboxamide], in assay [1], the Emax is at least 150% and the EC50 is below 3 µM. In addition, in assay [2], the “Maximum % activity (with co-corrector)” value is “+++ (≥350)” and the EC50 was below 3 µM.
In assay [1], `COc1ccc(Br)c2c1C(C(=O)NS(=O)(=O)c1cccc3ccccc13)CC2` (centres unmarked) [Example I-19, 4-bromo-7-methoxy-N-(naphthalene-1-sulfonyl)-2,3-dihydro-1H-indene-1-carboxamide] yielded an Emax of at least 150% and an EC50 of 3 to 10 µM. Besides, in assay [2], the “Maximum % activity (with co-corrector)” value is “+++ (≥350)” and the EC50 was below 3 µM.
In assay [1], `C[C@]1(C(=O)NS(=O)(=O)c2cccc3ccccc23)CCc2c1ccc1c2OCO1` [Example I-20, (6S)-6-methyl-N-(naphthalene-1-sulfonyl)-7,8-dihydro-2H,6H-indeno[4,5-d][1,3]dioxole-6-carboxamide] showed an Emax of at least 150% and an EC50 of 3 to 10 µM. In addition, in assay [2], the “Maximum % activity (with co-corrector)” value is reported as “+++ (≥350)” and the EC50 was 3 to 10 µM.
Turning to `C[C@@]1(C(=O)NS(=O)(=O)c2cccc3ccccc23)CCc2c1ccc1c2OCO1` [Example I-21, (6R)-6-methyl-N-(naphthalene-1-sulfonyl)-7,8-dihydro-2H,6H-indeno[4,5-d][1,3]dioxole-6-carboxamide], in assay [1], the Emax was at least 150% and the EC50 fell in the range of 3 to 10 µM. Besides, in assay [2], the “Maximum % activity (with co-corrector)” value is reported as “+++ (≥350)” and the EC50 was 3 to 10 µM.
As for `COc1ccc2c(c1)[C@@](C)(C(=O)NS(=O)(=O)c1cccc3ccccc13)CC2` [Example I-22, (1S)-6-methoxy-1-methyl-N-(naphthalene-1-sulfonyl)-2,3-dihydro-1H-indene-1-carboxamide], in assay [1], the Emax was at least 150% and the EC50 lay within 3 to 10 µM. In assay [2], the “Maximum % activity (with co-corrector)” value is given as “+++ (≥350)” and the EC50 was below 3 µM.
